US20240325398A1, “COMBINATION THERAPIES” (Infinity Pharmaceuticals, Inc., priority 2014, published 2024)

What was measured:
HH = assay: Combination study, ATPLite 72 h, dose matrix (Synergy Score, CI50); format: cell-based; details: combination with Compound 1
Protocol: The method is described as follows.
Additive effect is CI=1.0. […] Antagonistic effect is CI>1.0.
The Synergy Score is calculated as: […]

HBL-1 = assay: as above; details: combination with Compound 1, 72 h
Protocol: (§1) Cells are thawed from a liquid nitrogen preserved state. Once cells have been expanded and divide at their expected doubling times, screening begins. Cells are seeded in growth media in either black 1536-well or 384-well tissue culture treated plates. Cells are then equilibrated in assay plates via centrifugation and placed in incubators attached to the Dosing Modules at 37° C. for 24 hours before treatment. […] These Tzero (To) plates are read using ultra-sensitive luminescence on Envision plate readers (Perkin Elmer). Treated assay plates are incubated with compound for 72 hours. After 72 hours, plates are developed for endpoint analysis using ATPLite. All data points are collected via automated processes, quality controlled and analyzed using Zalicus software.
(§2) where T is treated cell count and V is untreated (vehicle) cell count (at 72 hours). I ranges from 0% (when T=V) to 100% (when T=0). […] The measure of effect in the experiment can be the inhibition of cellular response relative to the untreated level (vehicle alone). […] The inhibition ranges from 0% at the untreated level to 100% when T=0. Inhibition levels are negative for agents that actually increase levels. Other effect measures, such as an activity ratio r=T/V may be more appropriate for some assays. When activity ratios (e.g, fold increase over stimulated control) are being used, the effect can be measured using an induction 1=ln(T/V). With this definition, all effect expressions are the same as for inhibition.
(§3) Growth Inhibition (GI) is used as a measure of cell viability. […] A GI reading of 100% represents complete growth inhibition—T72 compound-treated and T0 vehicle signals are matched. […] A GI reading of 200% represents complete death of all cells in the culture well. Compounds reaching an activity plateau of GI 200% are considered cytotoxic. GI is calculated by applying the following test and equation:
(§4) Combination analysis data were collected in a 6×6 dose matrix. Synergy is calculated by comparing a combination's response to those of its single compound, against the drug-with-itself dose-additive reference model. Deviations from dose additivity may be assessed visually on an isobologram or numerically with a Combination Index (CI). […] Additive effect is CI=1.0. […] Antagonistic effect is CI>1.0.
(§5) To measure combination effects in excess of Loewe additivity, a scalar measure to characterize the strength of synergistic interaction termed the Synergy Score is devised. The Synergy Score is calculated as:
(§6) The fractional inhibition for each component agent and combination point in the matrix is calculated relative to the median of all vehicle-treated control wells. The Synergy Score equation integrates the experimentally-observed activity volume at each point in the matrix in excess of a model surface numerically derived from the activity of the component agents using the Loewe model for additivity. Additional terms in the Synergy Score equation (above) are used to normalize for various dilution factors used for individual agents and to allow for comparison of synergy scores across an entire experiment. The inclusion of positive inhibition gating or an Idata multiplier removes noise near the zero effect level, and biases results for synergistic interactions at that occur at high activity levels.
(§7) Loewe Volume (Loewe Vol) is used to assess the overall magnitude of the combination interaction in excess of the Loewe additivity model. Loewe Volume is particularly useful when distinguishing synergistic increases in a phenotypic activity (positive Loewe Volume) versus synergistic antagonisms (negative Loewe Volume). […] This model defines additivity as a non-synergistic combination interaction where the combination dose matrix surface should be indistinguishable from either drug crossed with itself. The calculation for Loewe additivity is:

OCI-Ly3 = assay: as above; details: combination with Compound 1; OCI-Ly3; 72 h
Protocol: as §1, §2, §3, §4, §5, §6, §7

U-2932 = assay: as above; details: combination with Compound 1, 72 h
TMD8 = assay: as above; details: combination with Compound 1
OCI-Ly7 = assay: as above; details: combination with Compound 1, 72 h
Protocol: as §1
(§8) The measure of effect in the experiment can be the inhibition of cellular response relative to the untreated level (vehicle alone). […] The inhibition ranges from 0% at the untreated level to 100% when T=0. Inhibition levels are negative for agents that actually increase levels.
as §3, §4, §5, §6, §7

SU-DHL-4-epst = assay: as above; details: combination with Compound 1, 72 h
Protocol: as §1, §8, §3, §4, §5, §6, §7

DOHH-2 = assay: as above; details: combination with Compound 1, 72 h
Farage = assay: as above; details: combination with Compound 1
SU-DHL-10-epst = assay: as above; details: combination with Compound 1, 72 h
RL = assay: as above; details: combination with Compound 1, 72 h
KARPAS-422 = assay: as above; details: combination with Compound 1, 72 h
Protocol: as §1, §2, §3, §4, §5, §6
(§9) Loewe Volume (Loewe Vol) is used to assess the overall magnitude of the combination interaction in excess of the Loewe additivity model. Loewe Volume is particularly useful when distinguishing synergistic increases in a phenotypic activity (positive Loewe Volume) versus synergistic antagonisms (negative Loewe Volume). […] This model defines additivity as a non-synergistic combination interaction where the combination dose matrix surface should be indistinguishable from either drug crossed with itself.

WSU-NHL = assay: as above; details: combination with Compound 1, 72 h
KARPAS-299 = assay: as above; details: combination with Compound 1
GRANTA-519 = assay: as above; details: combination with Compound 1
Jeko-1 = assay: as above; details: combination with Compound 1
Mino = assay: as above; details: combination with Compound 1
Protocol: as §1, §2, §3, §4, §5, §6, §9

NCI-H929 = assay: as above; details: combination with Compound 1
[1] = as above; details: combination with Compound 1; OPM-2
OMP-2 = assay: as above; details: combination with Compound 1; OPM-2
RPMI-8226 = assay: as above; details: combination with Compound 1
Protocol: as §1, §2, §3, §4, §5, §6, §9

## CO[C@H]1C[C@@H]2CC[C@@H](C)[C@@](O)(O2)C(=O)C(=O)N2CCCC[C@H]2C(=O)O[C@H]([C@H](C)C[C@@H]2CC[C@@H](OCCO)[C@H](OC)C2)CC(=O)[C@H](C)/C=C(\C)[C@@H](O)[C@@H](OC)C(=O)[C@H](C)C[C@H](C)/C=C/C=C/C=C/1C [everolimus, dihydroxy-12-[(2R)-1-[(1S,3R,4R)-4-(2-hydroxyethoxy)-3-methoxycyclohexyl]propan-2-yl]-19,30-dimethoxy-15,17,21,23,29,35-hexamethyl-11,36-dioxa-4-azatricyclo[30.3.1.0]hexatriaconta-16,24,26,28-tetraene-2,3,10,14,20-pentone]
HH
  CI50 growth inhibition: S (S=0.01 to <0.5)
  CI50 inhibition: S (S=0.01 to <0.5)
  Synergy Score growth inhibition: A3 (A3=>3)
  Synergy Score inhibition: A2 (A2=1 to <3)
HBL-1
  CI50 growth inhibition: T (T=0.5 to <0.7)
  CI50 inhibition: U (U=0.7 to <1)
  Synergy Score growth inhibition: A2 (A2=1 to <3)
  Synergy Score inhibition: A1 (A1=0.0001 to <1)
OCI-Ly3
  CI50 growth inhibition: U (U=0.7 to <1)
  Synergy Score growth inhibition: A2 (A2=1 to <3)
  Synergy Score inhibition: A1 (A1=0.0001 to <1)
U-2932
  CI50 growth inhibition: S (S=0.01 to <0.5)
  Synergy Score growth inhibition: A2 (A2=1 to <3)
  Synergy Score inhibition: A2 (A2=1 to <3)
TMD8; TMD8, 72 h
  CI50 growth inhibition: T (T=0.5 to <0.7)
  CI50 inhibition: S (S=0.01 to <0.5)
  Synergy Score growth inhibition: A3 (A3=>3)
  Synergy Score inhibition: A3 (A3=>3)
TMD8; TMD8 DLBCL cell line, FIG. 1-3
  effect of the combination (isobologram): synergistic effect
OCI-Ly7
  CI50 growth inhibition: S (S=0.01 to <0.5)
  CI50 inhibition: W (W=≥1)
  Synergy Score growth inhibition: A2 (A2=1 to <3)
  Synergy Score inhibition: A2 (A2=1 to <3)
SU-DHL-4-epst
  CI50 growth inhibition: S (S=0.01 to <0.5)
  CI50 inhibition: S (S=0.01 to <0.5)
  Synergy Score growth inhibition: A3 (A3=>3)
  Synergy Score inhibition: A3 (A3=>3)
DOHH-2
  CI50 growth inhibition: S (S=0.01 to <0.5)
  CI50 inhibition: S (S=0.01 to <0.5)
  Synergy Score growth inhibition: A3 (A3=>3)
  Synergy Score inhibition: A3 (A3=>3)
Farage; Farage DLBCL cell line, FIG. 4-5
  effect of the combination (isobologram): synergistic effect
Farage; Farage, 72 h
  CI50 growth inhibition: T (T=0.5 to <0.7)
  CI50 inhibition: S (S=0.01 to <0.5)
  Synergy Score growth inhibition: A3 (A3=>3)
  Synergy Score inhibition: A3 (A3=>3)
SU-DHL-10-epst
  CI50 growth inhibition: S (S=0.01 to <0.5)
  CI50 inhibition: S (S=0.01 to <0.5)
  Synergy Score growth inhibition: A3 (A3=>3)
  Synergy Score inhibition: A3 (A3=>3)
RL
  CI50 growth inhibition: T (T=0.5 to <0.7)
  CI50 inhibition: S (S=0.01 to <0.5)
  Synergy Score growth inhibition: A2 (A2=1 to <3)
  Synergy Score inhibition: A2 (A2=1 to <3)
KARPAS-422
  CI50 growth inhibition: W (W=≥1)
  CI50 inhibition: S (S=0.01 to <0.5)
  Synergy Score growth inhibition: A2 (A2=1 to <3)
  Synergy Score inhibition: A2 (A2=1 to <3)
WSU-NHL
  CI50 growth inhibition: T (T=0.5 to <0.7)
  CI50 inhibition: S (S=0.01 to <0.5)
  Synergy Score growth inhibition: A3 (A3=>3)
  Synergy Score inhibition: A3 (A3=>3)
KARPAS-299
  CI50 growth inhibition: U (U=0.7 to <1)
  CI50 inhibition: W (W=≥1)
  Synergy Score growth inhibition: A1 (A1=0.0001 to <1)
  Synergy Score inhibition: A1 (A1=0.0001 to <1)
GRANTA-519
  CI50 growth inhibition: S (S=0.01 to <0.5)
  Synergy Score growth inhibition: A2 (A2=1 to <3)
  Synergy Score inhibition: A1 (A1=0.0001 to <1)
Jeko-1
  CI50 growth inhibition: T (T=0.5 to <0.7)
  CI50 inhibition: U (U=0.7 to <1)
  Synergy Score growth inhibition: A2 (A2=1 to <3)
  Synergy Score inhibition: A2 (A2=1 to <3)
Mino
  CI50 growth inhibition: T (T=0.5 to <0.7)
  CI50 inhibition: U (U=0.7 to <1)
  Synergy Score growth inhibition: A2 (A2=1 to <3)
  Synergy Score inhibition: A2 (A2=1 to <3)
NCI-H929
  CI50 growth inhibition: S (S=0.01 to <0.5)
  CI50 inhibition: T (T=0.5 to <0.7)
  Synergy Score growth inhibition: A3 (A3=>3)
  Synergy Score inhibition: A2 (A2=1 to <3)
[1]
  CI50 growth inhibition: S (S=0.01 to <0.5)
OMP-2
  CI50 inhibition: W (W=≥1)
  Synergy Score growth inhibition: A2 (A2=1 to <3)
  Synergy Score inhibition: A2 (A2=1 to <3)
RPMI-8226
  CI50 growth inhibition: U (U=0.7 to <1)
  CI50 inhibition: W (W=≥1)
  Synergy Score growth inhibition: A2 (A2=1 to <3)
  Synergy Score inhibition: A1 (A1=0.0001 to <1)
